“Also recorded” adds a separate entry of the source.

In one experiment the test system is p65. Description: Western blot on PTXF-treated Treg cells. The format is cell-based, mice. As to conditions: Treg cells stimulated with anti-CD3/CD28 and mIL-2, 500 μg/mL PTXF. On the procedure:
Total cells suspensions were then activated with 5 μg/mL plate-coated anti-mCD3, 1 μg/ml soluble anti-mCD28 (BioLegend) and 10 ng/mL mIL-2, overnight at 37 C. Treg cells were then washed for further use. Total lysates were extracted using RIPA buffer and protease inhibitors with SDS. 20 μg (micrograms) protein extracts were ran in polyacrylamide gels and transferred onto PVDF membranes. Membranes were incubated with anti-p65, c-Rel (Santa-Cruz) and GAPDH (Fitzgerald) Abs, followed HRP-coupled secondary Abs.

The subject of experiment [1] is Treg cells. Description: In vitro suppression assay with PTXF-treated Treg cells. Format: cell-based, mice. As to conditions: vs mock-treated Treg cells.
Experiment [2] deals with B16F1 melanoma cells. Briefly: Established B16F1 melanoma, PTXF with or without checkpoint-blockade mAb. As to conditions: for tumor size / tumor growth (growth curves): PTXF 50 mg/kg and/or anti-PD-1 mAb from D5-D6, vs control. The format is in vivo, C57Bl/6 WT mice. On the procedure: Pentoxifylline (Sigma) powder was dissolved in PBS1X and sterile filtered prior to each injection. For the early regimen of pentoxifylline treatment, mice were injected intra-peritoneally with 50 mg/kg pentoxifylline diluted in 100 μL PBS1X at days 0, 1, 2, 3, 5, 7, and 9. For the “curative” regimen, mice were treated daily from day 5-6 (when the tumor was visible and palpable) to day 11, following the same methods. IT-603 was reconstituted in DMSO and stored at −80° C. It then was diluted in PBS1X and sterile-filtered prior to each injection. Mice were injected intra-peritoneally with 10 mg/kg […] diluted in 100 μL PBS1X at days 0, 1, 2, 3, 5, 7 and 9.
Anti-PD-1 antibody (clone RMP1-14, BioXCell®) or isotype control (polyclonal IgG, BioXCell®) is available commercially. The antibodies were aliquoted in sterile PBS1X and stored at −80° C. until use. Mice are injected intra-peritoneally with […] of anti-PD-1 or isotype antibody, diluted in 100 μL sterile PBS1X at days 6, 8 and 10. All injections are performed using a 27.5 gauge needle, following the standard precautions.
5×10^4 B16F1 or 5×10^5 CT-26 or BRAF^CAPten^−/− cells diluted in sterile PBS1X were injected subcutaneously into the shaved flank of each mouse. For metastasis experiments, 2.5×10^4 B16F10 cells were injected intravenously in the tail vein. […] Anti-PD-1 (RMP1-14), anti-PD-L1 (10F.9G2) and anti-CD8 (YTS.169-4) mAbs were obtained from BioXCell. Rat IgG isotype control was from R&D Systems. […] In FIG. 11A-11G, Balb/c mice harboring CT-26 tumors received a suboptimal dose of 100 μg of anti-PD-1.
Tumor growth was monitored daily.

Experiment [3] deals with Treg cells. Briefly: In vivo suppression (colitis) assay with PTXF-treated Treg cells. Also noted: species or system RAG1−/− mice. The note with it: Treg transferred with naïve Tconv cells. The method, then:
Total cells suspensions were then activated with 5 μg/mL plate-coated anti-mCD3, 1 μg/ml soluble anti-mCD28 (BioLegend) and 10 ng/mL mIL-2, overnight at 37 C. Treg cells were then washed for further use. For in vitro assays, CD45.1^+ naïve conventional CD4+ T cells were magnetically isolated (Miltenyi) and labelled with CellTrace Violet Proliferation Tracker (Life Technologies). They were cultured with T-cell depleted, mitomycin C-treated WT splenocytes and 2.5 μg/mL anti-mCD3, in the presence or not of treated Treg cells as described above. Proliferation of CD45.1^+ T cells was assessed by FACS at D4. The % of suppression was calculated as described. For in vivo assays, 4.10^5 naïve Tconv cells were isolated as above and transferred with or without 1.10^5 Treg cells, to the retro-orbital sinus of 6-9 week-old RAG1^−/− mice. Recipients were then weighed every week and euthanized when weight loss was >30%.

For the next experiment, the target named is T1, c-Rel (Homo sapiens, UniProt Q04864).
T1 construct: host or cells: T cells
T1 sequence (Q04864 1-619): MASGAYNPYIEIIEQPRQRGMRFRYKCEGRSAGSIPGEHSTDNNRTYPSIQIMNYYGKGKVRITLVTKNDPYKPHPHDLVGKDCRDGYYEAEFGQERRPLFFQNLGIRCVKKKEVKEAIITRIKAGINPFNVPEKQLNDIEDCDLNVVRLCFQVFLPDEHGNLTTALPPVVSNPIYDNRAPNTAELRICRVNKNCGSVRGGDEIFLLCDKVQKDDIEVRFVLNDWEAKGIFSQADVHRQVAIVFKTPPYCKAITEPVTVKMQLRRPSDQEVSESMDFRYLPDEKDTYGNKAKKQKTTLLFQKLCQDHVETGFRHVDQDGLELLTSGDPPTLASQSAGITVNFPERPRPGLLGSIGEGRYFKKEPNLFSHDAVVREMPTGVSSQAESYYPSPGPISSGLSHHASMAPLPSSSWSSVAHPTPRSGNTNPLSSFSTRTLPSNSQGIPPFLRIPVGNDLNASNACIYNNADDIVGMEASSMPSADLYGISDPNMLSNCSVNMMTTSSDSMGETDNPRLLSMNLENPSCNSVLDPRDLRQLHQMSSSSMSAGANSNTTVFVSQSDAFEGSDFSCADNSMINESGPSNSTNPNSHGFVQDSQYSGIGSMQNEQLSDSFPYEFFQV
As to conditions: cited from earlier work.

The test system of experiment [4] is B16F1 melanoma cells. Briefly: Flow cytometry of tumor infiltrates (TILs) at D16, early PTXF treatment. The format is in vivo, C57Bl/6J mice. On the procedure: Cells were isolated from thymus, spleen and lymph nodes by mechanical desegregation in PBS+ FBS 3%. For tumor-infiltrating cell suspensions, total tumors were digested in DMEM (Gibco) supplemented with 1 mg/ml collagenase type IV (Sigma) and 1 mg/ml DNase I (Sigma) for 40 minutes at 37° C., followed by centrifugation in a 36% Percoll solution. For intracellular cytokines analyses, cell suspensions were incubated 3 hours with PMA (Sigma, 50 ng/mL), ionoymycin (Sigma, 1 μg/mL) in the presence of Golgi Plug (BD), or incubated 4 hours with mitomycin C-treated WT splenocytes loaded with 10 mg/mL gp100/pmel 17 peptide (Neo Biolab) in the presence of Golgi Plug. Cells were then stained with mAbs purchased by eBioscience or Tonbo Bioscience. Foxp3 and cytokine staining were performed using the eBioscience kit and protocol. Cells were acquired on a LSR II (BD Biosciences) and analyzed with FlowJo (Tree Star) software.

`CC(=O)CCCCn1c(=O)c2c(ncn2C)n(C)c1=O` [PTXF, 1-(5-oxohexyl)-3,7-dimethylxanthine]: the “levels of p65” value in the experiment with p65 is given as “unchanged”. Besides, in the experiment on Treg cells [1], the “suppression of effector T-cell proliferation by PTXF-treated Treg cells” value is recorded as “modest, but significant, reduction”. Moreover, the “tumor size / tumor growth (growth curves)” value with B16F1 melanoma cells [2] is on record as “did not change the growth curves; also recorded: did not significantly reduce tumor size”. In addition, the “tumor size / tumor growth (growth curves)” value in the experiment with B16F1 melanoma cells [2] (listed as pentoxifylline) is reported as “did not significantly reduce tumor size”. For the same molecule, the “tumor growth, anti-PD-L1 instead of anti-PD-1” value in the experiment with B16F1 melanoma cells [2] (PTXF and/or anti-PD-L1 mAb) is reported as “did not affect tumor growth”. In addition, in the experiment on Treg cells [3], the “prevention of colitis by PTXF-treated Treg” value was “completely failed to prevent colitis”. For the same molecule, the “levels of c-Rel activation in T cells in vitro” value at c-Rel is listed as “reduces the levels of c-Rel activation”. In the experiment with B16F1 melanoma cells [4], the “CD44 and Ki67 expression on CD4+ Tconv TILs” value is given as “increased”; the “infiltration of total T cells and IFN-γ-producing CD4 and CD8 T-cells into the tumors” value was “increase in infiltration”; the “proportion of Treg cells in tumor infiltrates” value is “decrease in the proportion of Treg cells”.

The values are drawn from US10954300B2, “Use of pentoxifylline with immune checkpoint-blockade therapies for the treatment of melanoma” (THE TRUSTEES OF COLUMBIA UNIVERSITY IN THE CITY OF NEW YORK, priority 2015, dated 2021).
